≈ marks a conversion by molar mass, not a printed value. Read-outs that look alike come from different tables or passages of the source.
Columns and labels:
[1] = test system: Bacillus cereus ATCC 1-702; assay: Antibacterial spectrum, standard serial dilution method; format: cell-based; details: read-out: Minimum Growth Inhibitory Concentration
Serratia sp. SOU = assay: as above; format: cell-based; details: read-out: Minimum Growth Inhibitory Concentration
[2] = test system: Micrococcus flavus FDA 16; assay: as above; format: cell-based; details: read-out: Minimum Growth Inhibitory Concentration
Escherichia coli W677 = assay: as above; format: cell-based; details: read-out: Minimum Growth Inhibitory Concentration
[3] = test system: Escherichia coli K-12 ML1410 R81; assay: as above; format: cell-based; details: K12ML1410R81, 18 h, read-out: Minimum Growth Inhibitory Concentration
Salmonella typhi T-63 = assay: as above; format: cell-based; details: Salmonella enterica, 18 h, read-out: Minimum Growth Inhibitory Concentration
[4] = test system: Klebsiella pneumoniae 22 = 3038; assay: as above; format: cell-based; details: read-out: Minimum Growth Inhibitory Concentration
[5] = test system: Pseudomonas aeruguinosa 21-75; assay: as above; format: cell-based, Pseudomonas aeruginosa; details: 2175, Muller-Hinton medium, 37° C., 18 hours, read-out: Minimum Growth Inhibitory Concentration
[6] = test system: Pseudomonas aeruguinosa B-13; assay: as above; format: cell-based, Pseudomonas aeruginosa; details: B13, Muller-Hinton medium, 37° C., 18 hours, read-out: Minimum Growth Inhibitory Concentration
[7] = test system: Escherichia coli K-12 R388; assay: as above; format: cell-based; details: K12R388, 18 h, read-out: Minimum Growth Inhibitory Concentration
[8] = test system: Pseudomonas aeruguinosa A3; assay: as above; format: cell-based, Pseudomonas aeruginosa; details: read-out: Minimum Growth Inhibitory Concentration
[9] = test system: Bacillus subtilis PCI 219; assay: as above; format: cell-based; details: read-out: Minimum Growth Inhibitory Concentration
[10] = test system: Escherichia coli K-12 LA290 R56; assay: as above; format: cell-based; details: K12LA290R56, 18 h, read-out: Minimum Growth Inhibitory Concentration
Bacillus anthracis = assay: microbe, parasite or virus in culture; format: cell-based; details: 18 h, read-out: Minimum Growth Inhibitory Concentration
[11] = test system: Pseudomonas aeruguinosa GN315; assay: Antibacterial spectrum, standard serial dilution method; format: cell-based, Pseudomonas aeruginosa; details: Pseudomonas aeruguinosa GN315; Muller-Hinton medium, 37° C., 18 hours; read-out: Minimum Growth Inhibitory Concentration
[12] = test system: Staphylococcus aureus Ap 01; assay: as above; format: cell-based; details: read-out: Minimum Growth Inhibitory Concentration
Serratia sp. 4 = assay: as above; format: cell-based; details: Muller-Hinton medium, 37° C., 18 hours, read-out: Minimum Growth Inhibitory Concentration
[13] = test system: Staphylococcus aureus Smith; assay: as above; format: cell-based; details: read-out: Minimum Growth Inhibitory Concentration
[14] = test system: Shibella flexneri 4b JS11811; assay: as above; format: cell-based; details: 18 h, read-out: Minimum Growth Inhibitory Concentration
[15] = test system: Pseudomonas maltophilia GN907; assay: as above; format: cell-based; details: Stenotrophomonas maltophilia, Muller-Hinton medium, 37° C., 18 hours, read-out: Minimum Growth Inhibitory Concentration
[16] = test system: Escherichia coli K-12 ML1410; assay: as above; format: cell-based; details: read-out: Minimum Growth Inhibitory Concentration
[17] = test system: Pseudomonas aeruguinosa 99; assay: as above; format: cell-based, Pseudomonas aeruginosa; details: Muller-Hinton medium, 37° C., 18 hours, read-out: Minimum Growth Inhibitory Concentration
[18] = test system: Pseudomonas aeruguinosa K-Ps 102; assay: as above; format: cell-based, Pseudomonas aeruginosa; details: KPS102; Pseudomonas aeruguinosa K-Ps 102; Muller-Hinton medium, 37° C., 18 hours; read-out: Minimum Growth Inhibitory Concentration
Proteus rettgeri GN311 = assay: as above; format: cell-based; details: Providencia rettgeri, read-out: Minimum Growth Inhibitory Concentration
[19] = test system: Staphylococcus epidermidis 109; assay: as above; format: cell-based; details: read-out: Minimum Growth Inhibitory Concentration
[20] = test system: Shigella dysernteriae JS11910; assay: as above; format: cell-based; details: Muller-Hinton medium, 37° C., 18 hours, read-out: Minimum Growth Inhibitory Concentration
[21] = test system: Escherichia coli K-12 LA290 R55; assay: as above; format: cell-based; details: K12LA290R55, 18 h, read-out: Minimum Growth Inhibitory Concentration
Sarcina lutea PCI 1001 = assay: as above; format: cell-based; details: Micrococcus luteus, read-out: Minimum Growth Inhibitory Concentration
Escherichia coli JR225 = assay: as above; format: cell-based; details: JR225, 18 h, read-out: Minimum Growth Inhibitory Concentration
[22] = test system: Salmonella enteritidis 1891; assay: as above; format: cell-based; details: Salmonella enterica, Muller-Hinton medium, 37° C., 18 hours, read-out: Minimum Growth Inhibitory Concentration
[23] = test system: Pseudomonas aeruguinosa ROS 134/PU21; assay: as above; format: cell-based, Pseudomonas aeruginosa; details: ROS134/PU21, 18 h, read-out: Minimum Growth Inhibitory Concentration
Providencia sp. 2991 = assay: as above; format: cell-based; details: read-out: Minimum Growth Inhibitory Concentration
Escherichia coli K-12 R5 = assay: as above; format: cell-based; details: K12R5, 18 h, read-out: Minimum Growth Inhibitory Concentration
[24] = ATCC1, Bacillus cereus ATCC 1-702, Muller-Hinton medium, 37° C., 18 hours
[25] = Micrococcus flavus, FDA16, 18 h
[26] = Bacillus subtilis, PCI219, 18 h
[27] = Staphylococcus epidermidis, 109, 18 h
[28] = Pseudomonas aeruguinosa A3, Muller-Hinton medium, 37° C., 18 hours
[29] = Proteus rettgeri GN311, Muller-Hinton medium, 37° C., 18 hours

| Compound | MIC [1, 24] | MIC [3] | MIC (Salmonella typhi T-63) | MIC [5] | MIC [6] | MIC [7] | MIC [10] | MIC (Bacillus anthracis) | MIC [11] | MIC (Serratia sp. 4) | MIC [14] | MIC [15] | MIC [17] | MIC [18] | MIC [20] | MIC [21] | MIC (Escherichia coli JR225) | MIC [22] | MIC [23] | MIC (Escherichia coli K-12 R5) | also measured |
| --- | --- | --- | --- | --- | --- | --- | --- | --- | --- | --- | --- | --- | --- | --- | --- | --- | --- | --- | --- | --- | --- |
| CNCC1CCC(O)C(OC2C(N)CC(OC)C(N(C)C(=O)CCN)C2O)O1 (stereo not drawn) [Compound No. 3, 4-N-(β-Alanyl)-2'-deamino-2'-hydroxyistamycin Bo] | 25 µg/mL (≈ 61.8 µM) | 25 µg/mL (≈ 61.8 µM) | 1.56 µg/mL (≈ 3.86 µM) | 100 µg/mL (≈ 247 µM) | 100 µg/mL (≈ 247 µM) | 3.13 µg/mL (≈ 7.74 µM) | 3.13 µg/mL (≈ 7.74 µM) | 3.13 µg/mL (≈ 7.74 µM) | 50 µg/mL (≈ 124 µM) | 100 µg/mL (≈ 247 µM) | 6.25 µg/mL (≈ 15.5 µM) | > 100 µg/mL | > 100 µg/mL | 50 µg/mL (≈ 124 µM) | 3.13 µg/mL (≈ 7.74 µM) | 12.5 µg/mL (≈ 30.9 µM) | 3.13 µg/mL (≈ 7.74 µM) | 6.25 µg/mL (≈ 15.5 µM) | > 100 µg/mL | 3.13 µg/mL (≈ 7.74 µM) | MIC (Serratia sp. SOU; Serratia, 18 h): 3.13 µg/mL (≈ 7.74 µM); MIC [2, 25]: 6.25 µg/mL (≈ 15.5 µM); MIC (Escherichia coli W677; W677, 18 h): 3.13 µg/mL (≈ 7.74 µM); MIC ([4]; Klebsiella pneumoniae 22 = 3038, Muller-Hinton medium, 37° C., 18 hours): 12.5 µg/mL (≈ 30.9 µM); MIC ([8]; Pseudomonas, A3, 18 h): 3.13 µg/mL (≈ 7.74 µM); MIC [9, 26]: 6.25 µg/mL (≈ 15.5 µM); MIC ([12]; AP01, 18 h): 6.25 µg/mL (≈ 15.5 µM); MIC ([13]; 18 h): 3.13 µg/mL (≈ 7.74 µM); MIC ([16]; K12ML1410, E. coli K-12 ML1410, Muller-Hinton medium, 37° C., 18 hours): 12.5 µg/mL (≈ 30.9 µM); MIC (Proteus rettgeri GN311; GN311, 18 h): 3.13 µg/mL (≈ 7.74 µM); MIC [19, 27]: 3.13 µg/mL (≈ 7.74 µM); MIC (Sarcina lutea PCI 1001; PCI1001, 18 h): 3.13 µg/mL (≈ 7.74 µM); MIC (Providencia sp. 2991; Providencia sp. 2991, Muller-Hinton medium, 37° C., 18 hours): 12.5 µg/mL (≈ 30.9 µM) |
| CNCC1CCC(O)C(OC2C(N)CC(O)C(N(C)C(=O)CCN)C2O)O1 (stereo not drawn) [Compound No. 4, 4-N-(β-Alanyl)-2'-deamino-2'-hydroxy-3-O-demethylistamycin Bo] |  | 6.25 µg/mL (≈ 16 µM) | 0.78 µg/mL (≈ 2 µM) | 12.5 µg/mL (≈ 32 µM) | 12.5 µg/mL (≈ 32 µM) | 1.56 µg/mL (≈ 4 µM) | 3.13 µg/mL (≈ 8.02 µM) | 1.56 µg/mL (≈ 4 µM) | 12.5 µg/mL (≈ 32 µM) | 12.5 µg/mL (≈ 32 µM) | 6.25 µg/mL (≈ 16 µM) | > 100 µg/mL | 25 µg/mL (≈ 64 µM) | 25 µg/mL (≈ 64 µM) | 3.13 µg/mL (≈ 8.02 µM) | 6.25 µg/mL (≈ 16 µM) | 1.56 µg/mL (≈ 4 µM) | 3.13 µg/mL (≈ 8.02 µM) | 100 µg/mL (≈ 256 µM) | 1.56 µg/mL (≈ 4 µM) | MIC ([1]; Bacillus cereus, ATCC1, 18 h): 6.25 µg/mL (≈ 16 µM); MIC (Serratia sp. SOU; Serratia, 18 h): 1.56 µg/mL (≈ 4 µM); MIC [2, 25]: 3.13 µg/mL (≈ 8.02 µM); MIC (Escherichia coli W677; W677, 18 h): 1.56 µg/mL (≈ 4 µM); MIC ([4]; Klebsiella pneumoniae, 18 h): 3.13 µg/mL (≈ 8.02 µM); MIC [8, 28]: 0.39 µg/mL (≈ 0.999 µM); MIC [9, 26]: 3.13 µg/mL (≈ 8.02 µM); MIC ([12]; AP01, 18 h): 3.13 µg/mL (≈ 8.02 µM); MIC ([13]; 18 h): 1.56 µg/mL (≈ 4 µM); MIC ([16]; K12ML1410, 18 h): 6.25 µg/mL (≈ 16 µM); MIC (Proteus rettgeri GN311; [29]): 0.78 µg/mL (≈ 2 µM); MIC [19, 27]: 1.56 µg/mL (≈ 4 µM); MIC (Sarcina lutea PCI 1001; PCI1001, 18 h): 1.56 µg/mL (≈ 4 µM); MIC (Providencia sp. 2991; Providencia, SP.2991, 18 h): 3.13 µg/mL (≈ 8.02 µM) |
| CNCC1CCC(N)C(OC2C(N)CC(OC)C(N(C)C(=O)CN)C2O)O1 (stereo not drawn) [Istamycin B, istamycin B] | 6.25 µg/mL (≈ 16 µM) | 1.56 µg/mL (≈ 4.01 µM) | 0.39 µg/mL (≈ 1 µM) | 50 µg/mL (≈ 128 µM) | > 100 µg/mL | 1.56 µg/mL (≈ 4.01 µM) | 0.78 µg/mL (≈ 2 µM) | 0.78 µg/mL (≈ 2 µM) | 25 µg/mL (≈ 64.2 µM) | 50 µg/mL (≈ 128 µM) | 3.13 µg/mL (≈ 8.04 µM) | > 100 µg/mL | > 100 µg/mL | 25 µg/mL (≈ 64.2 µM) | 3.13 µg/mL (≈ 8.04 µM) | 3.13 µg/mL (≈ 8.04 µM) | 0.78 µg/mL (≈ 2 µM) | 3.13 µg/mL (≈ 8.04 µM) | > 100 µg/mL | 0.78 µg/mL (≈ 2 µM) | MIC (Serratia sp. SOU; Serratia sp. SOU, Muller-Hinton medium, 37° C., 18 hours): 25 µg/mL (≈ 64.2 µM); MIC ([2]; FDA16, Micrococcus flavus FDA 16, Muller-Hinton medium, 37° C., 18 hours): 25 µg/mL (≈ 64.2 µM); MIC (Escherichia coli W677; E. coli W677, Muller-Hinton medium, 37° C., 18 hours): 0.78 µg/mL (≈ 2 µM); MIC ([4]; Klebsiella pneumoniae, 18 h): 3.13 µg/mL (≈ 8.04 µM); MIC [8, 28]: 0.39 µg/mL (≈ 1 µM); MIC ([9]; PCI219, Bacillus subtilis PCI 219, Muller-Hinton medium, 37° C., 18 hours): 0.78 µg/mL (≈ 2 µM); MIC ([12]; AP01, S. aureus Ap 01, Muller-Hinton medium, 37° C., 18 hours): 1.56 µg/mL (≈ 4.01 µM); MIC ([13]; S. aureus Smith, Muller-Hinton medium, 37° C., 18 hours): 0.39 µg/mL (≈ 1 µM); MIC ([16]; K12ML1410, 18 h): 3.13 µg/mL (≈ 8.04 µM); MIC (Proteus rettgeri GN311; [29]): 1.56 µg/mL (≈ 4.01 µM); MIC ([19]; Staphylococcus epidermidis, S. epidermidis 109, Muller-Hinton medium, 37° C., 18 hours): 0.78 µg/mL (≈ 2 µM); MIC (Sarcina lutea PCI 1001; PCI1001, Sarcina lutea PCI 1001, Muller-Hinton medium, 37° C., 18 hours): 0.39 µg/mL (≈ 1 µM); MIC (Providencia sp. 2991; Providencia, SP.2991, 18 h): 3.13 µg/mL (≈ 8.04 µM) |

Reference: patent US4795743A, “2'-deamino-2'-hydroxyistamycin Bo derivatives of low toxicity” (Zaidan Hojin Biseibutsu Kagaku Kenkyu Kai, priority 1986, dated 1989)
